Results as given in patent EP2067481A1, “Therapeutic use of desacyl ghrelin” (Charité - Universitätsmedizin Berlin, priority 2007, dated 2009).

Experiment: Study underlying Fig. 6: cumulative food intake after ip ghrelin and desacyl ghrelin, alone or simultaneously, freely fed rats, light phase
Assay type: in vivo, SD rats
Conditions: ghrelin 13 µg/kg ip plus vehicle
Experimental: Male adult SD rats (Harlan-Winkelmann Co., Borchen, Germany) weighting 250 g were housed in groups of 4 rats/cage under conditions of controlled illumination (12:12 h light/dark cycle, lights on/off: 6:30 a.m./6:30 p.m.), humidity, and temperature (22 ± 2°C). Animals were fed with a standard rat diet (Altromin®, Lage, Germany) and tap water ad libitum. All animals were trained daily to be accustomed to the experimental conditions for 14 days before starting the experiments. During the handling phase, the back position was practiced to make animals familiar with receiving an ip injection.
Rat desacyl ghrelin (0.5 mg/ml; Peptides International, Louisville, USA) or rat ghrelin (1 mg/ml) was dissolved in distilled water and stored at -20°C. Immediately before starting the experiments, peptides were diluted in vehicle solution consisting of sterile 0.15 M NaCl (Braun, Melsungen, Germany) to reach the final concentration of 13 µg (∼4 nmol) ghrelin/kg, and 64 µg (∼20 nmol) or 127 µg (∼40 nmol) desacyl ghrelin/kg body weight. Peptide solutions were kept on ice for the duration of the experiments. […]
On the day of the experiment, freely fed animals were injected ip simultaneously (final volume: 0.5 ml) with vehicle plus vehicle (0.15 M NaCl + 0.15 M NaCl, n=13), ghrelin plus vehicle (13 µg/kg + 0.15 M NaCl, n=13), ghrelin (13 µg/kg) plus 64 µg/kg or 127 µg/kg desacyl ghrelin (n =13 in both groups), or vehicle plus 64 µg/kg desacyl ghrelin (n=13) and returned to single housing cages immediately after the injection. […] Food intake was determined by measuring the difference between the preweighed standard chow and the weight of chow at the end of the first 30 min, 1 h and 2 h food exposure.
The cumulative food intake monitored at the end of the first 30 min, 1 h, and 2 h after peptide or vehicle injection was expressed as food intake (g)/body weight (kg) (Ruter et al. 2003). Data were expressed as mean ± SEM and analyzed by Kruskal-Wallis One Way ANOVA. Differences between groups were evaluated by the Student-Newman-Keuls method; p < 0.05 was considered significant.

## n-octanoyl-ghrelin
2h, vehicle plus vehicle 2.65 ± 0.93
  cumulative food intake: 7.71 ± 0.97 g/kg body weight
First half hour, vehicle plus vehicle 1.49 ± 0.72
  food intake: 5.76 ± 0.68 g/kg body weight
One hour, vehicle plus vehicle 1.49 ± 0.72
  cumulative food intake: 7.29 ± 0.92 g/kg
